Experiments:
Experiment in all cases: relative viability (nuclei count vs DMSO), 5 days (fraction); higher = more cells survive
IU1-47 + Tozasertib = compound: CC1=CC(=C(N1C2=CC=C(C=C2)Cl)C)C(=O)CN3CCCCC3 [IU1-47] + Cc1cc(Nc2cc(N3CCN(C)CC3)nc(Sc3ccc(NC(=O)C4CC4)cc3)n2)n[nH]1 [Tozasertib] (partner 0.1 µM)
Method in brief: (§1)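 The day after seeding in 1536-well plates, lung cancer cell lines were treated by pin tool with a single drug, or with a fixed anchor-drug dose together with five library-drug doses (not always all listed) in √10 steps. After 5 days, a combined fix-and-stain solution (final 0.05% Triton X-100, 1% formaldehyde, 1 ug/ml Hoechst) was added. Nuclei counted on 4× images gave relative viability as treated counts over vehicle counts, reported as the median of duplicate plates.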

FG-4592 + Palbociclib = compound: Cc1nc(C(=O)NCC(=O)O)c(O)c2ccc(Oc3ccccc3)cc12 [FG-4592] + CC(=O)c1c(C)c2cnc(Nc3ccc(N4CCNCC4)cn3)nc2n(C2CCCC2)c1=O [Palbociclib] (partner 0.5 µM)
Method in brief: as §1

FG-4592 + Navitoclax = compound: Cc1nc(C(=O)NCC(=O)O)c(O)c2ccc(Oc3ccccc3)cc12 [FG-4592] + CC1(C)CCC(c2ccc(Cl)cc2)=C(CN2CCN(c3ccc(C(=O)NS(=O)(=O)c4ccc(N[C@H](CCN5CCOCC5)CSc5ccccc5)c(S(=O)(=O)C(F)(F)F)c4)cc3)CC2)C1 [Navitoclax] (partner 0.5 µM)
Method in brief: as §1

FG-4592 + Linsitinib = compound: Cc1nc(C(=O)NCC(=O)O)c(O)c2ccc(Oc3ccccc3)cc12 [FG-4592] + C[C@]1(O)C[C@@H](c2nc(-c3ccc4ccc(-c5ccccc5)nc4c3)c3c(N)nccn32)C1 [Linsitinib] (partner 1 µM)
Method in brief: as §1

| Cell Line | relative viability (IU1-47 + Tozasertib; first compound 0.08 µM) | relative viability (IU1-47 + Tozasertib; first compound 0.253 µM) | relative viability (IU1-47 + Tozasertib; first compound 0.8 µM) | relative viability (IU1-47 + Tozasertib; first compound 8 µM) | relative viability (FG-4592 + Palbociclib; first compound 0.08 µM) | relative viability (FG-4592 + Palbociclib; first compound 0.253 µM) | relative viability (FG-4592 + Palbociclib; first compound 0.8 µM) | relative viability (FG-4592 + Palbociclib; first compound 2.53 µM) | relative viability (FG-4592 + Palbociclib; first compound 8 µM) | relative viability (FG-4592 + Navitoclax; first compound 0.08 µM) | relative viability (FG-4592 + Navitoclax; first compound 0.253 µM) | relative viability (FG-4592 + Navitoclax; first compound 0.8 µM) | relative viability (FG-4592 + Navitoclax; first compound 2.53 µM) | relative viability (FG-4592 + Navitoclax; first compound 8 µM) | relative viability (FG-4592 + Linsitinib; first compound 0.08 µM) | relative viability (FG-4592 + Linsitinib; first compound 0.253 µM) | relative viability (FG-4592 + Linsitinib; first compound 0.8 µM) | relative viability (FG-4592 + Linsitinib; first compound 2.53 µM) | relative viability (FG-4592 + Linsitinib; first compound 8 µM) | relative viability (IU1-47 + Tozasertib; first compound 2.53 µM) |
| --- | --- | --- | --- | --- | --- | --- | --- | --- | --- | --- | --- | --- | --- | --- | --- | --- | --- | --- | --- | --- |
| 201T | 0.991 | 0.947 | 1.05 | 0.762 | 0.349 | 0.362 | 0.341 | 0.36 | 0.341 | 1.14 | 1.19 | 1.21 | 1.18 | 1.22 | 0.943 | 0.963 | 0.897 | 1.08 | 1.02 |  |
| NCI-H460 | 0.459 | 0.513 | 0.496 | 0.393 | 0.204 | 0.168 | 0.173 | 0.155 | 0.119 | 1.15 | 1.08 | 1.25 | 0.963 | 0.979 | 0.708 | 0.665 | 0.788 | 0.766 | 0.748 | 0.57 |
| HCC-15 | 0.385 | 0.432 | 0.354 | 0.227 | 0.73 | 0.767 | 0.684 | 0.733 | 0.755 | 0.758 | 0.698 | 0.686 | 0.714 | 0.744 | 0.874 | 0.805 | 0.93 | 0.831 | 0.914 |  |
| NCI-H441 | 0.824 | 0.713 | 0.667 | 0.544 | 0.226 | 0.214 | 0.208 | 0.226 | 0.186 | 0.606 | 1.01 | 0.573 | 0.964 | 0.588 | 0.451 | 0.498 | 0.477 | 0.57 | 0.562 | 0.662 |
| EPLC-272H | 0.228 | 0.347 | 0.246 | 0.145 | 0.323 | 0.289 | 0.327 | 0.378 | 0.283 | 1.15 | 1.09 | 0.775 | 1.05 | 1.08 | 1.09 | 1.06 | 0.859 | 1.18 | 1.03 |  |

From the supplement of paper PMC10307832
